Values after ≈ are worked out from the molar mass of the structure shown. Where two headings read alike, the source gives them in different places.
How the values were obtained:
RPE cells [1] = assay: Cell viability and growth measurement of RPE cells (MTT assay), cytotoxicity test; type: cell-based; settings: cytotoxicity to RPE cells, 24 hours
Experimental: The cell culturing comprises the following steps. • 1.
Before experiments, the medium was replaced by serum-free medium. […] After placed in an incubator, the cells were cultured for 24 hours after treated by various concentrations of embodiments 1-5. Next, 1.0 mg/mL 3-(4,5-Dimethylthiazol-2-yl)-2,5-diphenyltetrazolium bromide (MTT) was added and reacted at 37° C. for 1 hour. Afterwards, 200 μL dimethyl sulfoxide (DMSO) was added into each well and shake in the dark at room temperature for 10 minutes after slight mixing. After the residual cells were completely dissolved, an enzyme immunoassay analyzer (MRX microplate reader, USA) was used to detect the 550 nm absorbance of each well. The cells untreated by embodiments were used as a control group after culturing for 24 hours.
One purpose of the example 1 is to test the cytotoxicity of the embodiments 1-5 to the RPE cells and the promotion of the embodiments 1-5 to the RPE cell growth. The mitochondrial enzyme of live cells can reduce the MTT to formazan of purple crystal dissolved by DMSO. In short, the metabolic activity of cells is used to determine whether cells are alive or not. The measured dissolving absorbance is equal to the cell viability. Therefore, the more the cells alive, the higher the absorbance. The calculating formula of the cell viability was shown below. Cell viability (%)=(light absorbance after cells treated by drugs for 24 hours/light absorbance of the control group after 24 hours)×100%
If P<0.05, it indicates a significant difference.
Referring to FIGS. 1-5, which are diagrams showing cytotoxicity testing results according to the instant disclosure respectively.

RPE cells [2] = type: cell-based; settings: 0.1 mM H2O2
Experimental: (§1) The cell culturing comprises the following steps. • 1. RPE cell clones were taken out from anti-frozen tubes in liquid nitrogen and quickly moved to a sterile hood after thawed in 37° C. water bath for 1 minute. RPE cell clones were taken out and placed in 10 cm dishes having 10 mL DMEM (Dulbecco's Modified Eagle Medium) therein. 10% inactivated fetal bovine serum (FBS), 2 mM L-glutamine, 100 U/mL penicillin, and 100 µg/mL streptomycin were added into the DMEM. • 2. The dishes were placed in a 37° C. incubator and cultured in conditions of a mixture gas of 95% air and 5% CO2, as well as 70% humidity. The old mediums were replaced by fresh mediums every 3 days. Serum-free DMEM was used instead of the mediums before performing experiments. • 3. When cells proliferated to nearly saturation, the numbers of cells were counted by a cell counter. […] Since RPE cells are attachment type cells, the medium containing the cells was transferred into 15 mL centrifugation tubes and then centrifuged at 72 g for 5 mines at room temperature when the medium was replaced. After centrifugation, the supernatant was removed and then fresh medium was added for culturing.
(§2) Before experiment, the medium was replaced by serum-free medium. Fixed quantity of RPE cells (2×10^5 cells/mL) were respectively placed in 96 wells of a plate. […] Next, different concentrations of oxidative stress inducer were added to treat the cells. […] The blue light having a wavelength of 480 nm and an illuminance of 350 lux was emitted by a blue light-emitting-diode (LED). Subsequently after treated by irradiating with blue light for 7 days or oxidative stress inducer for 24 hours, 0.5 mg/mL of MTT was added and reacted at 37° C. for 2 hours. Afterwards, 200 μL DMSO was added to each well. After slight mixing, the plate was vibrated in the dark for 10 minutes. After completely dissolving the residual cells, the enzyme immunoassay analyzer was used to detect the absorbance of each well. The cells untreated by oxidative stress inducers and embodiments were used as the control group. […]

RPE cells [3] = settings: for most effective action concentration range to t-BHP: t-BHP-induced cytotoxicity
Experimental: as §1, §2

RPE cells [4] = assay: Protective effect to NaN3-induced cytotoxicity (MTT assay); settings: 10 mM NaN3 (viability about 50% without treatment); medium and high concentrations
Experimental: as §1, with “After centrifugation, the supernatant was removed and then fresh medium was added for culturing.” left out
Before experiment, the medium was replaced by serum-free medium. Fixed quantity of RPE cells (2×10^5 cells/mL) were respectively placed in 96 wells of a plate. […] After completely dissolving the residual cells, the enzyme immunoassay analyzer was used to detect the absorbance of each well. […]

RPE cells [5] = assay: Protective effect to blue light irradiation-induced cytotoxicity (MTT assay); settings: for most effective action concentration range to blue light irradiation: blue light-induced cytotoxicity
Experimental: as §1
Before experiment, the medium was replaced by serum-free medium. Fixed quantity of RPE cells (2×10^5 cells/mL) were respectively placed in 96 wells of a plate. […] Next, different concentrations of oxidative stress inducer were added to treat the cells. […] The blue light having a wavelength of 480 nm and an illuminance of 350 lux was emitted by a blue light-emitting-diode (LED). […] Afterwards, 200 μL DMSO was added to each well. After slight mixing, the plate was vibrated in the dark for 10 minutes. After completely dissolving the residual cells, the enzyme immunoassay analyzer was used to detect the absorbance of each well. The cells untreated by oxidative stress inducers and embodiments were used as the control group.
The statistical analysis was performed by Student's t-test or one way ANOVA. If P<0.05, it indicates a significant difference.
The concentrations of embodiment 3 were 15.625, 31.25, and 62.5 μg/mL. […]

| Molecule | IC25 (RPE cells [1]) | IC50 (RPE cells [1]) | IC75 (RPE cells [1]) | protection of cells from H2O2 damage (RPE cells [2]) | most effective action concentration range to t-BHP (RPE cells [3]) | cell viability (RPE cells [4]) | IC50 (RPE cells [1]; read-out: IC50) | most effective action concentration range to blue light irradiation (RPE cells [5]) | cytotoxicity response at high concentration (RPE cells [3]) | cell viability (RPE cells [5]; 5 days, 31.25 µg/mL) |
| --- | --- | --- | --- | --- | --- | --- | --- | --- | --- | --- |
| echinacoside [Embodiment 2] | 50 µg/mL | 75 µg/mL | 100 µg/mL | protected | between low and medium concentrations | – | – | – | – | – |
| Tubuloside A [Embodiment 5] | 150 µg/mL | 200 µg/mL | 250 µg/mL | protected | – | ~100% | – | – | – | – |
| C[C@@H]1O[C@@H](O[C@@H]2[C@@H](O)[C@H](OCCc3ccc(O)c(O)c3)O[C@H](COC(=O)/C=C/c3ccc(O)c(O)c3)[C@H]2O)[C@H](O)[C@H](O)[C@H]1O [Embodiment 4, Isoacteoside] | 31.25 µg/mL (≈ 50 µM) | – | 125 µg/mL (≈ 200 µM) | – | – | ~100% | 62.5 µg/mL (≈ 100 µM) | between low and medium concentrations | – | – |
| C[C@@H]1O[C@@H](O[C@@H]2[C@@H](O)[C@H](OCCc3ccc(O)c(O)c3)O[C@H](CO)[C@H]2OC(=O)/C=C/c2ccc(O)c(O)c2)[C@H](O)[C@H](O)[C@H]1O [Embodiment 3, Acteoside] | 31.25 µg/mL (≈ 50 µM) | – | 125 µg/mL (≈ 200 µM) | protected | between low and medium concentrations | – | 62.5 µg/mL (≈ 100 µM) | between low and medium concentrations | reasonable cytotoxicity responses were observed | above 90% |
